Experimental findings from patent US9289503B2, “Fatty acid fumarate derivatives and their uses” (Catabasis Pharmaceuticals, Inc., priority 2010, dated 2016) are described below.

Holding throughout (type): cell-based
One experiment concerns IL-1β. In words: IL-1β gene expression in LPS-stimulated RAW264.7 macrophages. Conditions: 10 μM; 2 hours pre-incubation, 100 ng/ml LPS 3 hours; compared with 10 μM each DHA and MMF; FIG. 1. As to the method:
RAW264.7 macrophages were seeded at a density of 100,000 cells/well in a 96-well plate in DMEM supplemented with 10% FBS and Penn/strep. 16 hours later, medium was aspirated and replaced with 90 μl/well of serum-free DMEM. A fatty acid fumarate conjugate, DHA and monomethyl-fumarate (MMF) were brought up in 100% EtOH to a concentration of 100 mM and then diluted 1:100 in 100% FBS for a stock solution consisting of 1 mM compound and 1% EtOH. these stock solutions were then diluted 1:10 in FBS supplemented with 1% EtOH to generate a 100 μM of a fatty acid fumarate conjugate and 100 μM each of DHA and MMF. 10 μl was then added to the RAW246.7 cells to generate final concentrations 10 μM of the fatty acid fumarate conjugate or 10 μM each DHA and MMF, along with vehicle only control. […] IL-1β and TNF-α transcript levels were then measured using Taqman primer/probe assay sets (Applied Biosystems), normalized to GAPDH using the deltaCt method, and the data expressed relative to vehicle only control. […]
RAW264.7 macrophages are seeded at a density of 100,000 cells/well in a 96-well plate in DMEM supplemented with 10% FBS and Penn/strep. […] Transcript levels are then measured using ABI Taqman primer/probe assay kits, normalized to GAPDH using the deltaCt method, and the data expressed relative to vehicle only control.

Another experiment deals with TNF-α. In words: TNF-α gene expression in LPS-stimulated RAW264.7 macrophages. The note with it: 10 μM; 2 hours pre-incubation, 100 ng/ml LPS 3 hours; compared with 10 μM each DHA and MMF; FIG. 1. Here is the method: RAW264.7 macrophages were seeded at a density of 100,000 cells/well in a 96-well plate in DMEM supplemented with 10% FBS and Penn/strep. 16 hours later, medium was aspirated and replaced with 90 μl/well of serum-free DMEM. A fatty acid fumarate conjugate, DHA and monomethyl-fumarate (MMF) were brought up in 100% EtOH to a concentration of 100 mM and then diluted 1:100 in 100% FBS for a stock solution consisting of 1 mM compound and 1% EtOH. these stock solutions were then diluted 1:10 in FBS supplemented with 1% EtOH to generate a 100 μM of a fatty acid fumarate conjugate and 100 μM each of DHA and MMF. 10 μl was then added to the RAW246.7 cells to generate final concentrations 10 μM of the fatty acid fumarate conjugate or 10 μM each DHA and MMF, along with vehicle only control. The compounds were allowed to pre-incubate for 2 hours before stimulation of 100 ng/ml LPS (10 μl of 1 μg/ml LPS was added to each well). Following 3 hours of LPS stimulation, cells were washed once in 1× PBS, aspirated dry, and flash frozen in liquid nitrogen. RNA was then isolated and converted to cDNA using the Cells to cDNA kit (Ambion) according to the manufacturer's protocol. IL-1β and TNF-α transcript levels were then measured using Taqman primer/probe assay sets (Applied Biosystems), normalized to GAPDH using the deltaCt method, and the data expressed relative to vehicle only control. […]

In another experiment the test system is Hmox1. Kind of experiment: Hmox1 target gene expression in RAW264.7 macrophages. The note with it: RAW264.7, 2 hours pre-incubation, 100 ng/ml LPS 3 hours; FIG. 3. As to the method:
RAW264.7 macrophages are seeded at a density of 100,000 cells/well in a 96-well plate in DMEM supplemented with 10% FBS and Penn/strep. 16 hours later, medium is aspirated and replaced with 90 μl/well of serum-free DMEM. A fatty acid fumarate conjugate, DHA and EPA are brought up in 100% EtOH to a concentration of 100 mM and then diluted 1:100 In 100% FBS for a 20× stock solution consisting of 1 mM compound and 1% EtOH. The fatty acid fumarate conjugate 20× stock solutions are diluted 1:2 in FBS supplemented with 1% EtOH for a 500 uM 10× stock solution, whereas equal volumes of the DHA and EPA 20× stock solutions are mixed to create a 10× stock solution containing 500 μm each of DHA and EPA. […] The compounds are allowed to pre-incubate for 2 hours before stimulation of 100 ng/ml LPS (10 μl of 1 μg/ml LPS is added to each well). Following 3 hours of LPS stimulation, cells are washed once in 1× PBS, aspirated dry, and flash frozen in liquid nitrogen. RNA is then isolated and converted to cDNA using the Cells to cDNA kit (Ambion) according to the manufacturer's protocol. Transcript levels are then measured using ABI Taqman primer/probe assay kits, normalized to GAPDH using the deltaCt method, and the data expressed relative to vehicle only control.

Regarding `CC/C=C\C/C=C\C/C=C\C/C=C\C/C=C\C/C=C\CCC(=O)NCCNC(=O)/C=C/C(=O)OC` [Compound I-1, (E)-methyl 4-(2-(4Z,7Z,10Z,13Z,16Z,19Z)-docosa-4,7,10,13,16,19-hexaenamidoethylamino)-4-oxobut-2-enoate], in the experiment with IL-1β, the IL-1β gene expression entry is “greater reduction”. Besides, the TNF-α gene expression entry with TNF-α is “greater reduction”. Further, in the experiment with Hmox1, the “effect on the target gene Hmox1” value was “positive effect”.
